Experimental data: PubChem BioAssay AID2305 (GlaxoSmithKline (GSK), 2010)

What follows are molecules tested on P. falciparum 3D7 growth, pLDH absorbance (assay: P. falciparum 3D7 growth inhibition, dose response, strain 3D7 (AID 2305)).

SMILES	IC50
CSc1ccc(NC(=O)Nc2cc(C)nc3ccccc23)cc1Br	780 nM
Cc1cc(OCCCN2CCC(NS(=O)(=O)c3ccc(Cl)c(Cl)c3)CC2)c2ccccc2n1	900 nM
O=C(Nc1cccc(CN2CCN(C(=O)c3ccccc3)CC2)c1)c1ccco1	890 nM
Cc1cccc2[nH]c(-c3ccc(-c4cccc(NC(=O)NCc5cccc(F)c5)c4)s3)nc12	760 nM
Cc1[nH]c(C)c(-c2ccc(-c3ccccc3F)nc2)c(=O)c1Cl	250 nM
CC[C@H](N=C(Nc1ccc(-c2ccccc2)cc1)Nc1ccc(C#N)cc1O)c1ccccc1	760 nM
Cc1cc2nc(NC3=NC4(c5ccccn5)N=C(Nc5nc6cc(C)c(C)cc6[nH]5)NC4(c4ccccn4)N3)[nH]c2cc1C (stereo not drawn)	680 nM
Cc1cccc2[nH]c(-c3ccc(-c4ccc(CN5CCC(CCN6CCCCC6)CC5)cc4)cc3)nc12	140 nM
COc1ccccc1C1CCN(C2CCC(NC(=O)/C=C/c3cc(C(F)(F)F)cc(C(F)(F)F)c3)CC2)CC1 (stereo not drawn)	1200 nM
CC(C)CC1c2[nH]c3ccccc3c2CCN1C(=O)CCc1ccccc1 (stereo not drawn)	970 nM
COc1cc(C)c(C(O)CNC(C)CCc2ccccc2)cc1C (stereo not drawn)	730 nM
O=C(/C=C/c1ccc(-c2nc3cc(F)c(F)cc3[nH]2)cc1)NCc1ccc(Cl)c(Cl)c1	940 nM
COc1ccc(Nc2nccc(-c3cccc(NC(=O)c4cc5cc(F)ccc5[nH]4)c3)n2)cc1	1030 nM
COc1cc2nc(Nc3ccc(N4CCOCC4)cc3)nc(N)c2cc1OC	870 nM
c1ccc2[nH]c(-c3ccc(-c4ccc(CNC5CC5)cc4)s3)nc2c1	1050 nM
COc1ccc2nccc([C@@H](O)CN3CCC(NC(=O)C(c4cc5ccccc5s4)N4CCN(c5ccccc5OC)CC4)CC3)c2c1 (stereo partly drawn)	160 nM
COc1ccc(NC(=O)Nc2ccc(C)c(-c3ccc(C(=O)NCCN4CCCC4)cc3)c2)cc1	900 nM
O=C(NCc1cccc(OC(F)(F)F)c1)c1cnc2c(c1)nc(-c1cnc(-c3ccccc3)[nH]1)n2CCc1cnc[nH]1	680 nM
OC(CNCc1ccccc1OCc1ccccc1)c1cccc(Br)c1 (stereo not drawn)	640 nM
CCN(CC)CCN(Cc1ccc(-c2ccc(C(F)(F)F)s2)cc1)C(=O)Cn1c(CCc2cccc(F)c2F)nc(=O)c2ccccc21	990 nM
COc1ccc(CNc2nc(NCc3ccccc3)c3cc(OC)c(OC)cc3n2)cc1OC	540 nM
CCCC(C)Nc1nc(C)cc(N[C@@H](Cc2ccccc2)C(=O)NCc2ccc(C)cc2)n1 (stereo partly drawn)	1120 nM
c1cn(CCCNc2ncc(-c3ccsc3)c(-c3nccs3)n2)cn1	650 nM

SMILES	IC50
c1ccc2c(c1)CN(CC1CC1)CC1(CCN(Cc3c[nH]c4cnccc34)CC1)O2	900 nM
O=C(Nc1ccccc1)N(Cc1cccc(-c2ccc(CNCc3ccc4c(c3)OCO4)cc2)c1)C1CCN(Cc2ccccc2)CC1	330 nM
COc1ccc(CN2CCC(CNCc3cccc(-c4ccccc4)c3)CC2)cc1	240 nM
CCNc1cc(C(=O)N[C@@H](Cc2ccc(Cl)cc2)[C@H](O)CNC2CCCCC2)cc(N2CCCCS2(=O)=O)c1	150 nM
NCCC(=O)Nc1ccc(-c2cnc3[nH]cc(-c4ccc(C(=O)O)cc4)c3c2)cn1	840 nM
CC(C)Sc1nc2c(c(=O)n1CCc1ccccc1)C1(CCCC1)Cc1ccccc1-2	350 nM
O=C(Nc1nc2cc(S(=O)(=O)NCc3ccc(Cl)c(Cl)c3)ccc2n1CCCN1CCCC1)c1ccc(Cl)cc1	940 nM
CC1(C)N=C(N)N=C(N)N1OCCNCc1ccc(Cl)cc1	160 nM
COc1cccc(C(=O)NCc2n[nH]c(=S)n2-c2ccc(Cl)c(Cl)c2)c1	170 nM
COc1ccc2nccc([C@@H](O)CN3CCC(NCCOc4ccccc4[N+](=O)[O-])CC3)c2c1	380 nM
O=C(Nc1ccc(NC2=NCCN2)cc1)Nc1ccc(NC2=NCCN2)cc1	850 nM
Cc1cc(N2CCOCC2)nc(Nc2ccc(NC(=O)Nc3ccc(F)cc3)cc2)n1	490 nM
O=c1[nH]c(Cc2ccccc2)nc2ccc(Cl)cc12	880 nM
CC(C)CN1C(=O)c2ccccc2C(C(=O)Nc2cccc(C#N)c2)C1c1cccs1 (stereo not drawn)	160 nM
CC(C)CCN1CCCN(Cc2ccc(C(=O)Nc3ccc(C(C)(C)C)cc3)cc2)CC1	870 nM
O=C(Nc1cccc(F)c1)NC1CCN(c2ccnc3cc(Cl)ccc23)CC1	610 nM
CC(C)(C)c1ccc(CNC(=O)c2ccc(-c3nc4ccc(Cl)cc4[nH]3)cc2)cc1	820 nM
Cc1nn(-c2ccccc2)nc1C(=O)N(Cc1ccc(-c2ccc(CNCCc3ccc(S(C)(=O)=O)cc3)cn2)cc1)C(C)CN(C)C (stereo not drawn)	680 nM
COc1ccc(C=CC(=O)NC(=O)c2ccccc2OC(=O)c2ccccc2)cc1OC	910 nM
COc1cc2c(cc1C(F)(F)F)N(C(=O)Nc1cc(-c3ccncc3)cc(-c3cccnc3)c1)CC2	620 nM
FC(F)(F)c1cc(C(F)(F)F)c2cc(CNCCCNc3nc4ccccc4[nH]3)[nH]c2c1	140 nM
O=C1SC(=Cc2ccc(O)c(O)c2)C(=O)N1c1ccccc1	1200 nM
O=C(Nc1cc(Cl)ccc1-n1cncn1)C1(c2ccccc2)CC1	450 nM

SMILES	IC50
O=S(=O)(NCCN1CCCC1)c1ccc(-c2ccc(CNCc3ccsc3)cc2)cc1	850 nM
CC(C)N1CCN(C(CN2CCN(CCCOc3cccc(F)c3)CC2)c2ccc(F)cc2)CC1 (stereo not drawn)	910 nM
CCNC(=O)N1CCc2ccc(Oc3nc(NCc4ccccc4OC)ncc3C)cc2CC1	1070 nM
OC(CNc1ccnc(Nc2ccccc2)n1)c1ccc(C(F)(F)F)cc1 (stereo not drawn)	610 nM
O=C(Nc1cccc(-c2ccc(CN3CCC(O)CC3)cc2)c1)c1ccc(Cl)cc1	960 nM
CC(C)C[C@H](NC(=O)c1ccc(OCCN2CCOCC2)cc1)C(=O)N[C@H](/C=N/N1CCNC1=O)CCc1ccccc1	370 nM
CC[C@H](C)CNC(=O)c1ccnc(-c2cccc(CN3CCC(N4CCCC4)CC3)c2)c1	850 nM
C=CCN1C(=O)C(C(C)=O)=C(O)C1c1ccccc1 (stereo not drawn)	50 nM
O=C(NC(CCCN1CCC2(CC1)OCc1ccccc12)c1ccc(Cl)c(Cl)c1)c1cc(C(F)(F)F)cc(C(F)(F)F)c1 (stereo not drawn)	540 nM
O=C(Nc1cccc(-c2ccc(-c3nc4ccccc4[nH]3)cc2)c1)Nc1ccc(F)c(F)c1F	240 nM
CNC(=O)c1cc(F)c(F)cc1Nc1nc(Nc2cccc(CS(C)(=O)=O)c2)ncc1Cl	1020 nM
COC(=O)c1cc(C(O)CNC(C)CCc2cccc(F)c2)ccc1O (stereo not drawn)	1180 nM
O=[N+]([O-])c1cccc(CNCC2CCN(Cc3ccc(O)cc3)CC2)c1	670 nM
Cc1ccc(S(=O)(=O)NC2CCN(c3ccnc4cc(Cl)ccc34)C2)cc1 (stereo not drawn)	620 nM
O=C(NC1CCCCN(Cc2ccccc2O)C1)c1ccc(-c2ccccc2)cc1 (stereo not drawn)	760 nM
Cc1[nH]c(C)c(Cc2ccc(Oc3ccc(OC(F)(F)F)cc3)cc2)c(=O)c1Br	690 nM
CN1CCC(N(Cc2ccc(-c3ccc(C(F)(F)F)cc3)nc2)C(=O)Cn2c(CCc3cccc(F)c3F)cc(=O)c3ccccc32)CC1	1100 nM
CN1CCCC(CN2CCN(Cc3cccc(-c4csc(-c5nc6ccccc6[nH]5)c4)c3)CC2)C1 (stereo not drawn)	410 nM
c1cc(CN2CCCCC2)cc(-c2ccc(-c3nc4ccccc4[nH]3)cc2)c1	890 nM
COc1ccccc1C(=O)Nc1ccc(Nc2nc(C)cc(N3CCOCC3)n2)cc1	530 nM
CNCCNCc1cccc(-c2cccc(-c3nc4ccc(C(F)(F)F)cc4[nH]3)c2)c1	200 nM
Cc1ccc(Cn2ncc(N3C[C@@H](C)N[C@@H](C)C3)c(Cl)c2=O)cc1NC(=O)Nc1ccc(-c2ccccc2)cc1	740 nM
